Assay [1] deals with Substance-P receptor (Cavia porcellus) (UniProt P30547). The experiment in a line: Antagonist activity against tachykinin receptor 1 activity in guinea pig ileum in vitro. In kind it is functional, tissue-based.
The nature of assay [2]: Effective bladder capacity increasing effect of compound (0.3 mg/kg i.v.) expressed as the ratio of increase in effective bladder capacity compared to saline treated animals in vivo. In kind it is functional, Cavia porcellus.

Consider four compounds from ChEMBL document CHEMBL1142020, “2-substituted-4-aryl-6,7,8,9-tetrahydro-5H-pyrimido[4,5-b][1,5]oxazocin-5-one as a structurally new NK1 antagonist” (2005).

A word on the Kb: it is the equilibrium dissociation constant of an antagonist, usually derived from a functional assay. Low readings indicate a more potent antagonist, high ones a less potent antagonist.

Substance-P receptor (Cavia porcellus), sequence (P30547 whole entry): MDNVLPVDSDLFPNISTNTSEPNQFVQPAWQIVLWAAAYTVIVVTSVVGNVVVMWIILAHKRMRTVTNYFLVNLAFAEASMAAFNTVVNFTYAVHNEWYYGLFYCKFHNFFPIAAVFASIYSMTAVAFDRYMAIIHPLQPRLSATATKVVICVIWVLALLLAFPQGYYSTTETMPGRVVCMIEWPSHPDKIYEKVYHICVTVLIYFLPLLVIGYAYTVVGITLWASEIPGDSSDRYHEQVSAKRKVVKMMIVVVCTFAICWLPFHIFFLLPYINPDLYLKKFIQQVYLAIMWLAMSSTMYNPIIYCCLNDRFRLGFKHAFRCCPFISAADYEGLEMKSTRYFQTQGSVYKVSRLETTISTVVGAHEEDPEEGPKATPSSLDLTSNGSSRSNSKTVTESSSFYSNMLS

Regarding `Cc1ccccc1-c1nc(N2CCC(N3CCCC3)CC2)nc2c1C(=O)N(Cc1cc(C(F)(F)F)cc(C(F)(F)F)c1)CCCO2`, the Kb in assay [1] was 0.166 nM. For the same compound, the Effect in assay [2] turned out to be 33.4%.

Consider `Cc1ccccc1-c1cc(N2CCC(N3CCCC3)CC2)nc2c1C(=O)N(Cc1cc(C(F)(F)F)cc(C(F)(F)F)c1)CCCO2`, for which the Effect in assay [2] turned out to be 24.2%. In assay [1], `Cc1ccccc1-c1nc(N2CCC(N3CCCC3)CC2)cc2c1C(=O)N(Cc1cc(C(F)(F)F)cc(C(F)(F)F)c1)CCCO2` registered a Kb of 0.339 nM. In addition, the Effect in assay [2] was 3.97%.

In turn, `Cc1ccc(-c2c3n(c(=O)c4ncccc24)CC[C@@H](C)CN(Cc2cc(C(F)(F)F)cc(C(F)(F)F)c2)C3=O)cc1` yielded a Kb in assay [1] of 0.27 nM. In assay [2], the Effect is listed as 12%.
